From US20090062223A1, “AMINO TRICYCLIC-NUCLEOSIDE COMPOUNDS, COMPOSITIONS, AND METHODS OF USE” (GENELABS TECHNOLOGIES, INC., priority 2007, published 2009)
Values after ≈ are worked out from the molar mass of the structure shown.

Columns and labels:
in vitro = in vitro ADME; details: human, Caco-2
Experimental: (§1) Caco-2 cells were maintained in Dulbecco's Modification of Eagle's Medium (DMEM) with sodium pyruvate, Glutmax supplemented with 1% Pen/Strep, 1% NEAA and 10% fetal bovine serum in an incubator set at 37° C., 90% humidity and 5% CO2. Caco-2 cells between passage 43 and 61 were grown to confluence over at least 21-days on 24 well PET (polyethylene-terephthalate) plates (BD Biosciences). Experiments were run using a new HBSS donor buffer from Invitrogen containing additional 10 mM HEPES, 15 mM Glucose with pH adjusted to pH 6.5. The receiver well used HBSS buffer supplemented with 1% BSA and the pH adjusted to pH 7.4. After an initial equilibration with transport buffer, TEER values were read to test membrane integrity. The experiment was started by the addition of buffers containing test compounds and 100 μl of solution is taken at 1 and 2 hrs from the receiver compartment. Removed buffer was replaced with fresh buffer and a correction was applied to all calculations for the removed material. Each compound was tested in 2 separate replicate wells for each condition. All samples were immediately collected into 400 μl 100% acetonitrile acid to precipitate protein and stabilize test compounds. Cells were dosed on the apical or basolateral side to determine forward (A to B) and reverse (B to A) permeability. Permeability through a cell free trans-well was also determined as a measure of cellular permeability through the membrane and non-specific binding. To test for non-specific binding and compound instability the total amount of drug was quantitated at the end of the experiment and compared to the material present in the original dosing solution as a percent recovery. Samples were analyzed by LC/MS/MS.
(§2) The apparent permeability, Papp, and % recovery were calculated as follows: […]
(§3) where, • dR/dt is the slope of the cumulative concentration in the receiver compartment versus time in μM/s based on receiver concentrations measured at 60 and 120 minute. • Vr and Vd is the volume in the receiver and donor compartment in cm^3, respectively. • A is the area of the cell monolayer (0.33 cm^2). • D0 and D120 is the measured donor concentration at the beginning and end of the experiment, respectively. • R120 is the receiver concentration at the end of the experiment (120 minutes).
(§4) The apparent permeability for certain compounds were determined using the above procedure.

[1] = Solubility (shaking flask); assay type: physicochemical; details: phosphate buffer solution (PBS), aqueous buffer, thermodynamic from solid; PBS; 37° C. for 24 hours
Experimental: The solubility for certain compounds were determined using the following protocol and procedure. 1) The solution, sterile water or phosphate buffer solution (PBS), was added to the test compound tube to make the final concentration 10 mg/mL. 2) The sample tube was vortexed and incubated at 37° C. for 24 hours. During the incubation period, the sample tube was vortexed several times. 3) After the incubation, vortex the tube and centrifuge the tube at 13,000 rpm for 10 mins using an Eppendorf Centrifuge Model 5415C. If the solution was still cloudy, centrifuge it for longer until a clear supernatant was achieved. 4) The supernatant was diluted to 1×, 10× and 100× in 50% ACN in water. 5) A six point standard curve was prepared separately to make the final concentrations of 1 μg/mL, 5 μg/mL, 10 μg/mL, 20 μg/mL, 40 μg/mL and 60 μg/mL. 6) Samples were quantified using an HPLC with UV detector. 7) From the three concentrations of 1×, 10× and 100× supernatant, choose the value, which was fallen into the standard curve range (1 ug/mL-60 ug/mL), as the final result. If all the results were out of the curve range, adjust using a dilution factor to make the value within the curve range.

[2] = Chemical stability in acidic solution (acid stability); assay type: physicochemical; details: pH 4.5 chemical solution; pH 4.5, 37° C.; read-out: Acid Stability (T ½, mins @ pH 4.5)
Caco-2 cells = test: in vitro; assay type: in vitro ADME
Experimental: as §1, §2, §3, §4

Row | solubility at 24 h [1] | half-life at 1 µg/mL [2] | Permeability Papp (A to B) × 10^−6 cm/s (Caco-2 A-B) (Caco-2 cells) | SMILES | Papp A→B at 2 h (in vitro)
1 | 11 µg/mL (≈ 31.7 µM) | < 0.25 h | low | CC1(O)C(O)C(CO)OC1n1cc2c3c(ncnc31)NC(=O)C=C2N (centres unmarked) [Compound 100, 9-amino-2-(3,4-dihydroxy-5-hydroxymethyl-3-methyl-tetrahydro-furan-2-yl)-2,6-dihydro-2,3,5,6-tetraaza-benzo[cd]azulen-7-one, reference compound] | 
2 | 215 µg/mL (≈ 437 µM) | > 2 h | low | CC(C)C(=O)OCOC(=O)NC1=CC(=O)Nc2ncnc3c2c1cn3[C@@H]1O[C@H](CO)[C@@H](O)[C@]1(C)O (stereo in doubt) [Compound 109, Isobutyric acid 2-(3,4-dihydroxy-5-hydroxymethyl-3-methyl-tetrahydro-furan-2-yl)-7-oxo-6,7-dihydro-2H-2,3,5,6-tetraaza-benzo[cd]azulen-9-ylcarbamoyloxymethyl ester] | 

Row | SMILES | solubility at 24 h [1] | half-life at 1 µg/mL [2] | Permeability Papp (A to B) × 10^−6 cm/s (Caco-2 A-B) (Caco-2 cells) | Papp A→B at 2 h (in vitro)
3 | CC(=O)OC[C@H]1O[C@@H](n2cc3c4c(ncnc42)NC(=O)C=C3N)C(C)(OC(C)=O)[C@@H]1OC(C)=O (stereo in doubt) [Compound 117, Acetic acid 4-acetoxy-2-acetoxymethyl-5-(9-amino-7-oxo-6,7-dihydro-2,3,5,6-tetraaza-benzo[cd]azulen-2-yl)-4-methyl-tetrahydro-furan-3-yl ester] | 510 µg/mL (≈ 1080 µM) |  |  | > 1 ×10⁻⁶ cm/s
